Data reported in ChEMBL document CHEMBL1806422, “Effects of C7 substitutions in a high affinity microtubule-binding taxane on antitumor activity and drug transport” (Bioorg Med Chem Lett, 2011).

Legend:
[1] = Binding affinity to microtubule after 30 mins by epothilone-B competition binding assay
[2] = Cytotoxicity against multidrug-resistant human A2780AD cells overexpressing p-gp after 48 hrs by MTT assay; format: functional, cell-based; conditions: A2780 ADR
[3] = system: A2780; test: Resistant index, ratio of IC50 for multidrug-resistant human A2780AD cells overexpressing p-gp to IC50 for human A2780 cells; format: functional
[4] = Apparent permeability from apical to basolateral side of human Caco2 cells at 10 uM by LC/MS/MS analysis; format: ADME, cell-based; conditions: Caco-2
[5] = Apparent permeability from basolateral to apical side of human Caco2 cells at 10 uM by LC/MS/MS analysis; format: ADME, cell-based; conditions: Caco-2
[6] = Efflux ratio of permeability from basolateral to apical side to apical to basolateral side in human Caco2 cells at 10 uM by LC/MS/MS analysis; format: ADME, cell-based; conditions: Caco-2
[7] = system: A2780; test: Cytotoxicity against human A2780 cells after 48 hrs by MTT assay; format: functional, cell-based; conditions: A2780, 48 h
[8] = Binding affinity to purified p-glycoprotein by fluorescence quenching assay

Structure (SMILES) | Kd [1] [nM] | IC50 [2] [nM] | Ratio IC50 [3] | Papp A→B at 10 µM [4] [×10⁻⁶ cm/s] | Papp B→A at 10 µM [5] [×10⁻⁶ cm/s] | efflux ratio at 10 µM [6] | IC50 [7] [nM] | Kd [8] [nM]
C/C=C(\C)C(=O)N[C@@H](c1ccccc1)[C@@H](O)C(=O)O[C@H]1C[C@@]2(O)[C@@H](OC(=O)c3cccc(N=[N+]=[N-])c3)[C@@H]3[C@]4(OC(C)=O)CO[C@@H]4C[C@H](OC(=O)C4CC4)[C@@]3(C)C(=O)[C@H](O)C(=C1C)C2(C)C | 0.95 | 293 | 13.3 | 7.35 | 9.4 | 1.28 | 22 | 2150
C/C=C(\C)C(=O)N[C@@H](c1ccccc1)[C@@H](O)C(=O)O[C@H]1C[C@@]2(O)[C@@H](OC(=O)c3cccc(N=[N+]=[N-])c3)[C@@H]3[C@]4(OC(C)=O)CO[C@@H]4C[C@H](OC(=O)CCl)[C@@]3(C)C(=O)[C@H](O)C(=C1C)C2(C)C | 0.62 | 710 | 41.2 | 0.19 | 1.07 | 5.63 | 17.2 | 2750
C/C=C(\C)C(=O)N[C@@H](c1ccccc1)[C@@H](O)C(=O)O[C@H]1C[C@@]2(O)[C@@H](OC(=O)c3cccc(N=[N+]=[N-])c3)[C@@H]3[C@]4(OC(C)=O)CO[C@@H]4C[C@H](OC(=O)N(C)C)[C@@]3(C)C(=O)[C@H](O)C(=C1C)C2(C)C | 2.45 | 950 | 36.5 | – | – | – | 26 | 5290
CC(C)NCC(O)COc1cccc2ccccc12 (stereo not given) [PROPRANOLOL] | – | – | – | 19.2 | 23.4 | 1.21 | – | –
C/C=C(\C)C(=O)N[C@@H](c1ccccc1)[C@@H](O)C(=O)O[C@H]1C[C@@]2(O)[C@@H](OC(=O)c3cccc(N=[N+]=[N-])c3)[C@@H]3[C@]4(OC(C)=O)CO[C@@H]4C[C@H](OC(=O)NC)[C@@]3(C)C(=O)[C@H](O)C(=C1C)C2(C)C | 2.15 | 1400 | 189.2 | 2.55 | 19.1 | 7.48 | 7.4 | 3150
C/C=C(\C)C(=O)N[C@@H](c1ccccc1)[C@@H](O)C(=O)O[C@H]1C[C@@]2(O)[C@@H](OC(=O)c3cccc(N=[N+]=[N-])c3)[C@@H]3[C@]4(OC(C)=O)CO[C@@H]4C[C@H](OC(=O)CC(F)(F)F)[C@@]3(C)C(=O)[C@H](O)C(=C1C)C2(C)C | 0.66 | 1300 | 39.4 | 3 | 6.61 | 2.2 | 33 | 4310
C/C=C(\C)C(=O)N[C@@H](c1ccccc1)[C@@H](O)C(=O)O[C@H]1C[C@@]2(O)[C@@H](OC(=O)c3cccc(N=[N+]=[N-])c3)[C@@H]3[C@]4(OC(C)=O)CO[C@@H]4C[C@H](OC(=O)CC)[C@@]3(C)C(=O)[C@H](O)C(=C1C)C2(C)C | 1.1 | 14 | 5.2 | 0.095 | 0.265 | 2.79 | 2.7 | 498
C/C=C(\C)C(=O)N[C@@H](c1ccccc1)[C@@H](O)C(=O)O[C@H]1C[C@@]2(O)[C@@H](OC(=O)c3cccc(N=[N+]=[N-])c3)[C@@H]3[C@]4(OC(C)=O)CO[C@@H]4C[C@H](OC(=O)CN(C)C)[C@@]3(C)C(=O)[C@H](O)C(=C1C)C2(C)C | 1.48 | 3200 | 444.4 | 4.19 | 27 | 6.44 | 7.2 | 2380
C/C=C(\C)C(=O)N[C@@H](c1ccccc1)[C@@H](O)C(=O)O[C@H]1C[C@@]2(O)[C@@H](OC(=O)c3cccc(N=[N+]=[N-])c3)[C@@H]3[C@]4(OC(C)=O)CO[C@@H]4C[C@H](OC(=O)OCC)[C@@]3(C)C(=O)[C@H](O)C(=C1C)C2(C)C | 0.9 | 170 | 15.2 | 7.46 | 12.6 | 1.68 | 11.2 | 1420
CC(=O)O[C@H]1C(=O)[C@@]2(C)[C@H]([C@H](OC(=O)c3ccccc3)[C@]3(O)C[C@H](OC(=O)[C@H](O)[C@@H](NC(=O)c4ccccc4)c4ccccc4)C(C)=C1C3(C)C)[C@]1(OC(C)=O)CO[C@@H]1C[C@@H]2O [PACLITAXEL] | 56 | 1900 | 3064 | 0.66 | 5.03 | 7.62 | 0.62 | 35
C/C=C(\C)C(=O)N[C@@H](c1ccccc1)[C@@H](O)C(=O)O[C@H]1C[C@@]2(O)[C@@H](OC(=O)c3cccc(N=[N+]=[N-])c3)[C@@H]3[C@]4(OC(C)=O)CO[C@@H]4C[C@H](OC(=O)CNC(=O)OC(C)(C)C)[C@@]3(C)C(=O)[C@H](O)C(=C1C)C2(C)C | 0.81 | 875 | 56.4 | 1.23 | 8.53 | 6.93 | 15.5 | 6340
